The values that follow come from patent publication US20080089894A1, “Transplant tolerance by costimulation blockade and T-cell activation-induced apoptosis” (priority 1998, published 2008).

Values joined by “and” are separate entries in the source; they are usually repeats but may differ in a detail not shown here. Equal values may be shown once.

In this test the test system is BALB/c mouse heart allografts. As to the kind of experiment: BALB/c mouse heart allograft survival in C3H/He mice. The test is classed as in vivo. To be noted: BALB/c heart allograft in C3H/He host; one value per mouse; checked daily by palpitation; time in days. How it is done:
A control group of three C3H/He mice received syngeneic transplants. The treatments were given as follows:
Group 1) Anti-CD40L+CTLA4-Ig
Anti-CD40L: 250 μg/injection i.v. (intravenous) on day 0, i.p. (intraperitoneal) on day +2, +4,
CTLA4-Ig: 200 μg/injection i.p. on day 0, +2, +4, +6.
Anti-CD40L: 250 μg/injection i.v. on day 0, i.p. on day +2, +4,
CTLA4-Ig: 200 μg/injection i.p. on day 0, +2, +4, +6,
Group 3) Anti-CD40L+CTLA4-Ig+RPM
CTLA4-Ig: 200 μg/injection i.p. on day 0, +2, +4, +6
RPM: 0.2 mg/kg/day i.p. on day 0, +1, +2, then every other day to day +14.
RPM: 0.2 mg/kg/day i.p. on day 0, +1, +2, then every other day to day +14. The hosts were checked daily for graft survival by palpitation. In addition, other mice were sacrificed for pathologic examination at various time points.

Turning to `CO[C@H]1C[C@@H]2CC[C@@H](C)[C@@](O)(O2)C(=O)C(=O)N2CCCC[C@H]2C(=O)O[C@H]([C@H](C)C[C@@H]2CC[C@@H](O)[C@H](OC)C2)CC(=O)[C@H](C)/C=C(\C)[C@@H](O)[C@@H](OC)C(=O)[C@H](C)C[C@H](C)/C=C/C=C/C=C/1C` [RPM, rapamycin], the “Graft Survival” value is > 100 (3×) and > 97 and > 89.
